# Reference: patent publication US8389011B2, “Pharmaceutical compositions of cholesteryl ester transfer protein inhibitors” (Bend Research, Inc., priority 2000, dated 2013)
# Assay: In vitro dissolution test, microcentrifuge method, in phosphate buffered saline (PBS) pH 6.5
# Type: physicochemical
# Experimental: The compositions comprising the CETP inhibitor and concentration-enhancing polymer provide enhanced concentration of the dissolved CETP inhibitor in in vitro dissolution tests. […] An appropriate PBS solution is an aqueous solution comprising 20 mM sodium phosphate (Na2HPO4), 47 mM potassium phosphate (KH2PO4), 87 mM NaCl, and 0.2 mM KCl, adjusted to pH 6.5 with NaOH. An appropriate MFD solution is the same PBS solution wherein additionally is present 7.3 mM sodium taurocholic acid and 1.4 mM of 1-palmitoyl-2-oleyl-sn-glycero-3-phosphocholine. In particular, a composition of the present invention can be dissolution-tested by adding it to MFD or PBS solution and agitating to promote dissolution.
# Indeed, for some extremely insoluble CETP inhibitors, in order to identify the MDC achieved it may be necessary to use an amount of test composition such that if all of the CETP inhibitor dissolved, the CETP inhibitor concentration would be 10,000-fold or even more, that of the equilibrium concentration of the CETP inhibitor.
# The MDC is taken to be the maximum value of dissolved CETP inhibitor measured over the duration of the test.
# Filtration can be conducted using a 13 mm, 0.45 μm polyvinylidine difluoride syringe filter sold by Scientific Resources under the trademark TITAN®. Centrifugation is typically carried out in a polypropylene microcentrifuge tube by centrifuging at 13,000 G for 60 seconds. Other similar filtration or centrifugation methods can be employed and useful results obtained.
# The spray-dried dispersions of Examples 6 and 7 were evaluated in an in vitro dissolution test using a microcentrifuge method. In this test, the spray-dried dispersion was added to a microcentrifuge tube for a Drug 2 dose of about 1000 μg/mL (7.2 mg for Example 6, 18 mg for Example 7). The tube was placed in a 37° C. sonicating bath, and 1.8 mL phosphate buffered saline (PBS) at pH 6.5 and 290 mOsm/kg was added. The samples were quickly mixed using a vortex mixer for about 60 seconds. The samples were centrifuged at 13,000 G at 37° C. for 1 minute. The resulting supernatant solution was then sampled and diluted 1:6 (by volume) with methanol and then analyzed by high-performance liquid chromatography (HPLC). The contents of the tubes were mixed on the vortex mixer and allowed to stand undisturbed at 37° C. until the next sample was taken. Samples were collected at 4, 10, 20, 40, 90, and 1200 minutes.
# For Control 2, an in vitro dissolution test was performed using the procedures described above except that 1.8 mg of crystalline Drug 2 was used.
# In this method, 7.2 mg of each spray-dried dispersion was added to a 2-mL microcentrifuge tube. The tube was placed in a 37° C. sonicating bath, and 1.8 mL of a phosphate-buffered saline (PBS) solution at pH 6.5 and 290 mOsm/kg was added, resulting in a TCmax of 400 μg/mL. The samples were quickly mixed using a combination of vortex mixer and sonication for about 90 seconds. The samples were centrifuged at 13,000 G at 37° C. for 1 minute. The resulting supernatant solution was then sampled and diluted 1:6 (by volume) with methanol and then analyzed by HPLC. The tubes were then mixed on the vortex mixer and allowed to stand undisturbed at 37° C. until the next sample. Samples were collected at 4, 10, 20, 40, 90 and 1200 minutes.
# For Control 5, an in vitro dissolution test was performed using the procedure described above, except that 0.72 mg of non-crystalline Drug 3 was placed in a microcentrifuge tube and mixed with 1.8 mL of PBS.
# In this method, 15 mg of each SDD was added to a 2-mL microcentrifuge tube. The tube was placed in a 37° C. sonicating bath, and 1.5 mL of a phosphate-buffered saline (PBS) solution at pH 6.5 and 290 mOsm/kg) was added, resulting in a TCmax of 1000 μg/mL. The samples were quickly mixed using a combination of vortex mixer and sonication for about 90 seconds.
# [1] = PBS pH 6.5, 37° C., TCmax 1000 μg/mL, time 0 min
# [2] = PBS pH 6.5, 37° C., TCmax 1000 μg/mL, time 4 min
# [3] = PBS pH 6.5, 37° C., TCmax 1000 μg/mL, time 10 min
# [4] = PBS pH 6.5, 37° C., TCmax 1000 μg/mL, time 20 min
# [5] = PBS pH 6.5, 37° C., TCmax 1000 μg/mL, time 40 min
# [6] = PBS pH 6.5, 37° C., TCmax 1000 μg/mL, time 90 min
# [7] = Table 16, Drugs 4-9, PBS pH 6.5, 37° C., TCmax 1000 μg/mL
# [8] = Table 18, Drug 10 or Drug 11, PBS pH 6.5, 37° C., 0 min, TCmax 1000 μg/mL
# [9] = Table 18, Drug 10 or Drug 11, PBS pH 6.5, 37° C., 4 min, TCmax 1000 μg/mL
# [10] = Table 18, Drug 10 or Drug 11, PBS pH 6.5, 37° C., 10 min, TCmax 1000 μg/mL
# [11] = Table 18, Drug 10 or Drug 11, PBS pH 6.5, 37° C., 20 min, TCmax 1000 μg/mL
# [12] = Table 18, Drug 10 or Drug 11, PBS pH 6.5, 37° C., 40 min, TCmax 1000 μg/mL
# [13] = Table 18, Drug 10 or Drug 11, PBS pH 6.5, 37° C., 90 min, TCmax 1000 μg/mL
# [14] = Table 18, Drug 10 or Drug 11, PBS pH 6.5, 37° C., 1200 min, TCmax 1000 μg/mL
# [15] = Table 18, Drug 10 or Drug 11, PBS pH 6.5, 37° C., to 0 min, TCmax 1000 μg/mL
# [16] = Table 18, Drug 10 or Drug 11, PBS pH 6.5, 37° C., to 4 min, TCmax 1000 μg/mL
# [17] = Table 18, Drug 10 or Drug 11, PBS pH 6.5, 37° C., to 10 min, TCmax 1000 μg/mL
# [18] = Table 18, Drug 10 or Drug 11, PBS pH 6.5, 37° C., to 20 min, TCmax 1000 μg/mL
# [19] = Table 18, Drug 10 or Drug 11, PBS pH 6.5, 37° C., to 40 min, TCmax 1000 μg/mL
# [20] = Table 18, Drug 10 or Drug 11, PBS pH 6.5, 37° C., to 90 min, TCmax 1000 μg/mL
# [21] = Table 18, Drug 10 or Drug 11, PBS pH 6.5, 37° C., to 1200 min, TCmax 1000 μg/mL
# [22] = Table 19: Drugs 10 and 11, PBS pH 6.5, TCmax 1000 μg/mL
AUC [1],Concentration [1],AUC [2],Concentration [2],AUC [3],Concentration [3],AUC [4],Concentration [4],AUC [5],Concentration [5],AUC [6],Concentration [6],AUC90 [7],"Cmax, 90 [7]",Concentration [8],Concentration [9],Concentration [10],Concentration [11],Concentration [12],Concentration [13],Structure (SMILES),also measured
,,,,,,,,,,,,,,,,,,,,"CC[C@@H]1C[C@H](N(Cc2cc(C(F)(F)F)cc(C(F)(F)F)c2)C(=O)OC)c2cc(C(F)(F)F)ccc2N1C(=O)OC(C)C [Control 14, [2R,4S]4-[(3,5-bis-trifluoromethyl-benzyl)-methoxycarbonyl-amino]-2-ethyl-6-trifluoromethyl-3,4-dihydro-2H-quinoline-1-carboxylic acid isopropyl ester]","AUC90 (Table 34: Drug 12, PBS): <88 min-μg/mL; Cmax, 90 (Table 34: Drug 12, PBS): <1000 ng/mL"
0 min-μg/mL,0 ng/mL,<4 min-μg/mL,<1000 ng/mL,<10 min-μg/mL,<1000 ng/mL,<20 min-μg/mL,<1000 ng/mL,<40 min-μg/mL,<1000 ng/mL,<90 min-μg/mL,<1000 ng/mL,<90 min-μg/mL,<1000 ng/mL,,,,,,,"CCOC(=O)N1c2cc(CC)c(CC)cc2[C@@H](N(Cc2cc(C(F)(F)F)cc(C(F)(F)F)c2)C(=O)OC)C[C@H]1C [Control 7, [2R,4S]4-[(3,5-bis-trifluoromethyl-benzyl)-methoxycarbonyl-amino]-6,7-diethyl-2-methyl-3,4-dihydro-2H-quinoline-1-carboxylic acid ethyl ester]",
,,,,,,,,,,,,,,0 ng/mL,1000 ng/mL,1000 ng/mL,1000 ng/mL,1000 ng/mL,1000 ng/mL,"CCc1cc(Oc2cccc(N(Cc3cccc(OC(F)(F)C(F)F)c3)C[C@@H](O)C(F)(F)F)c2)ccc1Cl [Control 13, (2R)-3-[[3-(4-chloro-3-ethylphenoxy)phenyl][[3-(1,1,2,2-tetrafluoroethoxy)phenyl]methyl]amino]-1,1,1-trifluoro-2-propanol]","Concentration [14]: 0 ng/mL; AUC [15]: 0 min-μg/mL; AUC [16]: 0 min-μg/mL; AUC [17]: 0 min-μg/mL; AUC [18]: 0 min-μg/mL; AUC [19]: 0 min-μg/mL; AUC [20]: 100 min-μg/mL; AUC [21]: 600 min-μg/mL; AUC90 [22]: 80 min-μg/mL; Cmax, 90 [22]: 1000 ng/mL"
0 min-μg/mL,0 ng/mL,<4 min-μg/mL,<1000 ng/mL,<10 min-μg/mL,<1000 ng/mL,<20 min-μg/mL,<1000 ng/mL,<40 min-μg/mL,<1000 ng/mL,<90 min-μg/mL,<1000 ng/mL,<90 min-μg/mL,<1000 ng/mL,,,,,,,"CCOC(=O)N1c2cc(OC)c(OC)cc2[C@@H](N(Cc2cc(C(F)(F)F)cc(C(F)(F)F)c2)C(=O)OC)C[C@H]1C [Control 6, [2R,4S]4-[(3,5-bis-trifluoromethyl-benzyl)-methoxycarbonyl-amino]-6,7-dimethoxy-2-methyl-3,4-dihydro-2H-quinoline-1-carboxylic acid ethyl ester]",
0 min-μg/mL,0 ng/mL,<4 min-μg/mL,<1000 ng/mL,<10 min-μg/mL,<1000 ng/mL,<20 min-μg/mL,<1000 ng/mL,<40 min-μg/mL,<1000 ng/mL,<90 min-μg/mL,<1000 ng/mL,<90 min-μg/mL,<1000 ng/mL,,,,,,,"COC(=O)N(Cc1cc(C(F)(F)F)cc(C(F)(F)F)c1)[C@H]1C[C@@H](C2CC2)N(C(=O)OC(C)C)c2ccc(C(F)(F)F)cc21 [Control 10, [2S,4S]4-[(3,5-bis-trifluoromethyl-benzyl)-methoxycarbonyl-amino]-2-cyclopropyl-6-trifluoromethyl-3,4-dihydro-2H-quinoline-1-carboxylic acid isopropyl ester]",
,,,,,,,,,,,,,,0 ng/mL,0 ng/mL,1000 ng/mL,3000 ng/mL,6000 ng/mL,1000 ng/mL,"CC(C)c1cc2c(c(-c3ccc(F)cc3)c1[C@@H](F)c1ccc(C(F)(F)F)cc1)[C@@H](O)CC1(CCC1)C2 [Control 12, (4′S)-5′-(4-fluorophenyl)-6′-[(S)-fluoro[4-(trifluoromethyl)phenyl]methyl]-3′,4′-dihydro-7′-(1-methylethyl)-spiro[cyclobutane-1,2′(1′H)-naphthalen]-4′-ol]","Concentration [14]: 0 ng/mL; AUC [15]: 0 min-μg/mL; AUC [16]: 0 min-μg/mL; AUC [17]: 0 min-μg/mL; AUC [18]: 0 min-μg/mL; AUC [19]: 100 min-μg/mL; AUC [20]: 300 min-μg/mL; AUC [21]: 1,100 min-μg/mL; AUC90 [22]: 300 min-μg/mL; Cmax, 90 [22]: 6000 ng/mL"
